Reference: patent publication US20240246964A1 (Arbutus Biopharma Corporation, priority 2021, published 2024)

How the values were obtained:
[1] = molecular target: PD-L1 His protein / PD-1 Fc protein (Homo sapiens (Human), UniProt Q9NZQ7); assay: HTRF Assay (PD-1/PD-L1 interaction); type: binding; conditions: PD-L1 His 6 nM, PD-1 Fc 6 nM
human PD-L1 = human PD-L1 (Homo sapiens (Human), UniProt Q9NZQ7); assay: T cell activation luciferase reporter cell culture system (T Cell Activation Assay); type: cell-based; conditions: luciferase reporter assay; PD-L1 aAPC/CHO-K1 cells with PD-1 effector Jurkat T cells
Chain of human PD-L1 (Q9NZQ7 19-290): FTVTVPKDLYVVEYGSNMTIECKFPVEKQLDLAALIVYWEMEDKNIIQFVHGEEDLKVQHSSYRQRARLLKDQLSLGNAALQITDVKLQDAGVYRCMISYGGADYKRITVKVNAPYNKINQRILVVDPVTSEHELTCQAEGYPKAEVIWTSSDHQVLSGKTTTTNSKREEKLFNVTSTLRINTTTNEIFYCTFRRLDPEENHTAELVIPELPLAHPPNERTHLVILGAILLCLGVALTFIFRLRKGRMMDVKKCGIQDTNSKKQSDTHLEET

Chain of PD-L1 His protein / PD-1 Fc protein (Q9NZQ7 19-238): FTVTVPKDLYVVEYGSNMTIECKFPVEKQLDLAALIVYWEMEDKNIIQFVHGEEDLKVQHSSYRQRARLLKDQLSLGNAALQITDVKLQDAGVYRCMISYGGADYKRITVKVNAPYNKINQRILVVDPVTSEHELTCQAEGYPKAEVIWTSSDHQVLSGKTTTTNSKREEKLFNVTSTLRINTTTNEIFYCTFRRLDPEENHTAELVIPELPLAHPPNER

| Compound | IC50 [1] [nM] | EC50 (human PD-L1) [nM] |
| --- | --- | --- |
| COc1cc(-c2nccc(-c3cccc(-c4cc(F)c(CNC[C@@H]5CCC(=O)N5)c(OC)n4)c3Cl)c2Cl)cc2c1CN(C[C@@H](C)O)CC2 [Compound 131, (S)-5-((((6-(2-chloro-3-(3-chloro-2-(2-((R)-2-hydroxypropyl)-8-methoxy-1,2,3,4-tetrahydroisoquinolin-6-yl)pyridin-4-yl)phenyl)-4-fluoro-2-methoxypyridin-3-yl)methyl)amino)methyl)pyrrolidin-2-one] | 0.662 | 35.4 |
| COc1cc(-c2nccc(-c3cccc(-c4ccc(CNC[C@@H]5CCC(=O)N5)c(OC)n4)c3Cl)c2Cl)cc(F)c1CNCCCF [Compound 147, (S)-5-((((6-(2-chloro-3-(3-chloro-2-(3-fluoro-4-(((3-fluoropropyl)amino)methyl)-5-methoxyphenyl)pyridin-4-yl)phenyl)-2-methoxypyridin-3-yl)methyl)amino)methyl)pyrrolidin-2-one] | 1.96 | 42.7 |
| COc1nc(-c2cccc(-c3ccnc(-c4ccc(CN5CC6(CNC(=O)C6)C5)c(OC)n4)c3Cl)c2Cl)ccc1CN1CC2(CNC(=O)C2)C1 [Compound 628, 2-((3′-Chloro-4′-(2-chloro-3-(6-methoxy-5-((7-oxo-2,6-diazaspiro[3.4]octan-2-yl)methyl)pyridin-2-yl)phenyl)-6-methoxy-[2,2′-bipyridin]-5-yl)methyl)-2,6-diazaspiro[3.4]octan-7-one] | 0.28 | 27.1 |
| COc1cc(-c2cccc(-c3ccnc(-c4cnc(CNC5CCN(C(C)=O)CC5)c(OC)c4)c3Cl)c2Cl)ccc1CNC1CCN(C(C)=O)CC1 [Compound 500, 1-(4-(((4-(4′-(((1-acetylpiperidin-4-yl)amino)methyl)-2-chloro-3′-methoxy-[1,1′-biphenyl]-3-yl)-3-chloro-5′-methoxy-[2,3′-bipyridin]-6′-yl)methyl)amino)piperidin-1-yl)ethan-1-one] | 1.95 | 120 |
| COc1cc(-c2nccc(-c3cccc(-c4ccc(CNC[C@H](C)O)c(OC)n4)c3Cl)c2Cl)cc2c1CN(CC(N)=O)CC2 [Example 275, (S)-2-(6-(3-Chloro-4-(2-chloro-3-(5-(((2-hydroxypropyl)amino)methyl)-6-methoxypyridin-2-yl)phenyl)pyridin-2-yl)-8-methoxy-3,4-dihydroisoquinolin-2(1H)-yl)acetamide] | 5.36 | ≥ 10000 |
| COc1cc(-c2nccc(-c3cccc(-c4ccc(CN(C)C5CCN(C(C)=O)CC5)c(OC)n4)c3Cl)c2Cl)ccc1CNC1CCN(C(C)=O)CC1 | 3.12 | 49.1 |
| COc1nc(-c2cccc(-c3ccnc(-c4cc(OC)c5nc(CNC[C@@H]6CCC(=O)N6)nn5c4)c3Cl)c2Cl)ccc1CNC(C)C [Compound 764, (S)-5-((((6-(3-chloro-4-(2-chloro-3-(5-((isopropylamino)methyl)-6-methoxypyridin-2-yl)phenyl)pyridin-2-yl)-8-methoxy-[1,2,4]triazolo[1,5-a]pyridin-2-yl)methyl)amino)methyl)pyrrolidin-2-one] | 0.56 | 865 |
| COc1cc(-c2nccc(-c3cccc(-c4ccc5c(CNC6CCOCC6)cn(C)c5n4)c3Cl)c2Cl)ccc1CNC1CCN(C(C)=O)CC1 [Example 556, 1-(4-((4-(3-Chloro-4-(2-chloro-3-(1-methyl-3-(((tetrahydro-2H-pyran-4-yl)amino)methyl)-1H-pyrrolo[2,3-b]pyridin-6-yl)phenyl)pyridin-2-yl)-2-methoxybenzyl)amino)piperidin-1-yl)ethan-1-one] | 1.22 | 222 |
| COc1nc(-c2cccc(-c3ccnc(-c4ccc5c(CNCCO)cn(C)c5c4)c3Cl)c2Cl)ccc1CNC[C@@H]1CCC(=O)N1 [Compound 29, (S)-5-((((6-(2-chloro-3-(3-chloro-2-(3-(((2-hydroxyethyl)amino)methyl)-1-methyl-1H-indol-6-yl)pyridin-4-yl)phenyl)-2-methoxypyridin-3-yl)methyl)amino)methyl)pyrrolidin-2-one] | 1.1 | 94 |
| COc1nc(-c2cccc(-c3ccnc(-c4cnc5c(CNC6CCN(C(C)=O)CC6)cn(C)c5c4)c3Cl)c2Cl)ccc1CNC[C@@H]1CCC(=O)N1 [Compound 21, (S)-5-((((6-(3-(2-(3-(((1-acetylpiperidin-4-yl)amino)methyl)-1-methyl-1H-pyrrolo[3,2-b]pyridin-6-yl)-3-chloropyridin-4-yl)-2-chlorophenyl)-2-methoxypyridin-3-yl)methyl)amino)methyl)pyrrolidin-2-one] | 0.1 | 75.8 |
| COc1cc(-c2nccc(-c3cccc(-c4ccc(CN5CCC(C(C)=O)CC5)c(OC)n4)c3Cl)c2Cl)ccc1CN1CCC(C(C)=O)CC1 [Example 536, 1-(1-((6-(3-(2-(4-((4-Acetylpiperidin-1-yl)methyl)-3-methoxyphenyl)-3-chloropyridin-4-yl)-2-chlorophenyl)-2-methoxypyridin-3-yl)methyl)piperidin-4-yl)ethan-1-one] | 6.7 | ≥ 10000 |
| COc1nc(-c2cccc(-c3ccnc(-c4cc(OC)c5nc(CN[C@H]6CC[C@H](O)CC6)nn5c4)c3Cl)c2Cl)ccc1CNC(C)C [Compound 758, (1r,4r)-4-(((6-(3-Chloro-4-(2-chloro-3-(5-((isopropylamino)methyl)-6-methoxypyridin-2-yl)phenyl)pyridin-2-yl)-8-methoxy-[1,2,4]triazolo[1,5-a]pyridin-2-yl)methyl)amino)cyclohexanol] | 0.24 | 354 |
| COc1nc(-c2cccc(-c3ccnc(-c4ccc(CNC5CCOCC5)c(OC(F)F)c4)c3Cl)c2Cl)ccc1CN1CC2(CNC(=O)C2)C1 [Example 685, 2-((6-(2-Chloro-3-(3-chloro-2-(3-(difluoromethoxy)-4-(((tetrahydro-2H-pyran-4-yl)amino)methyl)phenyl)pyridin-4-yl)phenyl)-2-methoxypyridin-3-yl)methyl)-2,6-diazaspiro[3.4]octan-7-one] | 4.22 | 51.7 |
| COc1cc(-c2nccc(-c3cccc(-c4ccc(CNC56CC(CO)(C5)C6)c(OC)n4)c3Cl)c2Cl)ccc1CNC12CC(CO)(C1)C2 [Example 591, (3-(((6-(2-chloro-3-(3-chloro-2-(4-(((3-(hydroxymethyl)bicyclo[1.1.1]pentan-1-yl)amino)methyl)-3-methoxyphenyl)pyridin-4-yl)phenyl)-2-methoxypyridin-3-yl)methyl)amino)bicyclo[1.1.1]pentan-1-yl)methanol] | 24.5 | 469 |
| COc1nc(-c2ccnc(-c3cccc4c3CC[C@@H]4Nc3nc(OC)c(CNC4(C(=O)O)CC4)cc3C(F)(F)F)c2Cl)ccc1CNC[C@@H]1CCC(=O)N1 [Compound 164, 1-(((6-(((S)-4-(3′-chloro-6-methoxy-5-(((((S)-5-oxopyrrolidin-2-yl)methyl)amino)methyl)-[2,4′-bipyridin]-2′-yl)-2,3-dihydro-1H-inden-1-yl)amino)-2-methoxy-5-(trifluoromethyl)pyridine-3-yl)methyl)amino)cyclopropane-1-carboxylic acid] | 0.49 | 66.6 |
| COc1cc(-c2nccc(-c3cccc(NC(=O)c4ccc(CNC[C@@H]5CCC(=O)N5)cn4)c3C)c2Cl)ccc1CNCCCF [Example 749, (S)—N-(3-(3-Chloro-2-(4-(((3-fluoropropyl)amino)methyl)-3-methoxyphenyl)pyridin-4-yl)-2-methylphenyl)-5-((((5-oxopyrrolidin-2-yl)methyl)amino)methyl)picolinamide] | 0.33 | 461 |
| COc1cc(-c2nccc(-c3cccc(-c4ccc(CNC5CCOCC5)c(OC)n4)c3C)c2Cl)ccc1CNC1CCOCC1 [Example 426, N-((6-(3-(3-chloro-2-(3-methoxy-4-(((tetrahydro-2H-pyran-4-yl)amino)methyl)phenyl)pyridin-4-yl)-2-methylphenyl)-2-methoxypyridin-3-yl)methyl)tetrahydro-2H-pyran-4-amine] | 4.23 | 98.8 |
| COc1cc(-c2nccc(-c3cccc(-c4ccc(CN[C@H]5C[C@](C)(O)C5)c(OC)n4)c3Cl)c2Cl)cc2c1CN(C[C@H](C)O)CC2 [Compound 215, (1r,3r)-3-(((6-(2-chloro-3-(3-chloro-2-(2-((S)-2-hydroxypropyl)-8-methoxy-1,2,3,4-tetrahydroisoquinolin-6-yl)pyridin-4-yl)phenyl)-2-methoxypyridin-3-yl)methyl)amino)-1-methylcyclobutan-1-ol] | 5.58 | 25.5 |
| COc1nc(-c2cccc(-c3ccnc(-c4cc5c(=O)n(C)c(CNC(C)C)nn5c4)c3Cl)c2Cl)ccc1CNC[C@@H]1CCC(=O)N1 [Compound 111, (S)-6-(3-chloro-4-(2-chloro-3-(6-methoxy-5-((((5-oxopyrrolidin-2-yl)methyl)amino)methyl)pyridin-2-yl)phenyl)pyridin-2-yl)-2-((isopropylamino)methyl)-3-methylpyrrolo[2,1-f][1,2,4]triazin-4(3H)-one] | 2.2 | 263 |
| COc1cc(-c2nccc(-c3cccc(-c4ccc(CNC[C@@H]5CCC(=O)N5)c(OC)n4)c3Cl)c2Cl)cc(F)c1CNC[C@@H]1CCO1 [Compound 181, (S)-5-((((6-(2-chloro-3-(3-chloro-2-(3-fluoro-5-methoxy-4-(((((S)-oxetan-2-yl)methyl)amino)methyl)phenyl)pyridine-4-yl)phenyl)-2-methoxypyridin-3-yl)methyl)amino)methyl)pyridine1335ne-2-one] | 11.2 | 30.5 |
| COc1cc(-c2nccc(-c3cccc(-c4ccc(CN5CCN(C(C)=O)CC5)c(OC)n4)c3Cl)c2Cl)ccc1CN1CCN(C(C)=O)CC1 [Example 655, 1-(4-((6-(3-(2-(4-((4-Acetylpiperazin-1-yl)methyl)-3-methoxyphenyl)-3-chloropyridin-4-yl)-2-chlorophenyl)-2-methoxypyridin-3-yl)methyl)piperazin-1-yl)ethan-1-one] | 9.58 | ≥ 10000 |
